Experimental data as given in patent US11827917B1, “Methods for the conversion of fermentable sugars to ethanol” (Colorado State University Research Foundation, priority 2020, dated 2023).
“And” between values parts separate entries of the source, which are not always exact repeats. Equal values may be shown once.

What was measured:
S. cerevisiae JAY 270 = assay: 1-L batch bioreactor fermentation, time course; assay type: cell-based, Saccharomyces cerevisiae; settings: for Biomass Yield / Biomass yield % change vs. control / EtOH yield / EtOH yield % change vs. control / Glycerol yield / Glycerol yield % change vs. control: 1-L bioreactor, 24 hours; for Biomass yield, lower in comparison to control: addition in the fermentation medium
Description: Yeast strain: S. cerevisiae JAY 270, as in Example 1. Inocula for bioreactor experiments with PheOH and TrpOH S. cerevisiae JAY 270 were prepared by culturing the yeast in 100 mL of YPD medium in 200-mL serum bottles overnight in a shaker at 30° C. and 200 rpm. The cells were collected by centrifuging 10 min at 4000×g and 4° C. The cell pellet was washed twice using sterile 0.8% (w/v) NaCl solution. Finally, the cell pellet was resuspended in about 15 mL of 0.8% (w/v) NaCl.
Procedure: Fermentations were carried out in two Eppendorf BioFlo 115 bioreactors containing 1 L sterile YNB medium with 20 g/L glucose (Difco Yeast Nitrogen Base, catalog number 239210). The prepared yeast cells were inoculated in the bioreactor vessels to obtain an initial yeast cell concentration of OD600≈0.1. The fermentation was conducted at pH 5.5, 30° C., and 200 rpm agitation. Ultrapure N2 was sparged at 0.1 standard liters per minute in the bioreactor vessels to maintain anaerobic conditions. Samples were collected at different time points to monitor cell, glucose, and ethanol concentrations.
For experiments with added PheOH, 2.0 mL of PheOH stock solution was added to one of the two vessels when the OD600 reached 1.0 to achieve a final concentration of 0.2% (w/v). In the serum bottle tests, TrpOH had stronger effects on yeast cell growth than PheOH at the same tested concentration. A study in serum bottles was then conducted to determine the TrpOH concentration that would have a similar growth inhibitory effect. […] Thus, for bioreactor experiments on the effects of TrpOH, the TrpOH was added at 0.12%. Since TrpOH was dissolved in DMSO, the same concentration of DMSO was added in the control bioreactor at the same time. All other bioreactor conditions were the same as in the PheOH test.
Samples were collected from the bioreactors every hour post-addition for 6 h, and again after 24 hours of cultivation. Each experiment was repeated in triplicate.

yeast = assay: Yeast growth and ethanol yield in serum bottles, low/high cell inoculum (Tables 5, 6); assay type: cell-based
S. cerevisiae JAY270 = assay: Immobilized yeast cells, batch cultivation on D. armatus hydrolysate; assay type: cell-based, Saccharomyces cerevisiae; settings: 0.2%; for EtOH yield / EtOH yield % Δ from control: 24 hours
Description: S. cerevisae JAY270 cells were precultured in 600 mL YPD medium at 30° C. overnight and collected by centrifuging at 3000×g for 10 min at 4° C. The cell pellets were washed twice by resuspending in 0.8% NaCl and centrifuged to remove any medium residue. Then, the cells were resuspended in 50 mL 0.8% NaCl and mixed with the 4% sodium alginate solution to obtain the final sodium alginate concentration of 3%. The mixture was dropped with a syringe aseptically into sterilized 2% CaCl2·2H2O on ice to form spheres (“beads”). The cell-immobilized beads were kept in the CaCl2) solution at 4° C. until use.
The immobilized cells were incubated in YPD medium with 20 g/L glucose overnight at 30° C. to activate the immobilized cells. For each replicate test, 25 mL of D. armatus hydrolysate obtained from NREL was mixed with 15 mL beads and transferred into a 50 mL serum bottle. All serum bottles were incubated in a shaker at 150 rpm and 30° C. Samples were collected at 0, 12, and 24 h. The concentrations of sugars and ethanol in the samples were analyzed by HPLC.
To test the effects of yield-increasing chemicals on the immobilized cells fermentation, 0.2% PheOH or TrpOH was added in the D. armatus hydrolysate obtained from NREL in serum bottles respectively (batch growth). PheOH was directly added into the hydrolysate medium. TrpOH was dissolved in DMSO at 20%, then added into the hydrolysate to achieve the desired final concentration. The same amount of DMSO was added into the control cultivations. S. cerevisae JAY270 cells were immobilized in calcium alginate. The immobilized cell beads were incubated in YPD medium overnight at 30° C. to activate the immobilized cells. Twenty-five mL of D. armatus hydrolysate was mixed with 15 mL immobilized cell beads (three biological replicates in each treatment) and incubated at 30° C. The ethanol yield was calculated at 24 hours. The content of glucose and ethanol in samples was analyzed using HPLC.

[1] = 0.05%, high cell inoculum (OD600 at 0 h 1.96), 26 h test
[2] = 0.05%, low cell inoculum (OD600 at 0 h 0.70), 26 h test
[3] = 0.1%, high cell inoculum (OD600 at 0 h 1.96), 26 h test
[4] = 0.1%, low cell inoculum (OD600 at 0 h 0.70), 26 h test
[5] = 0.2%, high cell inoculum (OD600 at 0 h 1.96), 26 h test
[6] = 0.2%, low cell inoculum (OD600 at 0 h 0.70), 26 h test
[7] = 0.05%, high cell inoculum (OD600 at 0 h 0.85), 48 h test
[8] = 0.05%, low cell inoculum (OD600 at 0 h 0.30), 48 h test
[9] = 0.1%, high cell inoculum (OD600 at 0 h 0.85), 48 h test
[10] = 0.1%, low cell inoculum (OD600 at 0 h 0.30), 48 h test
[11] = 0.2%, high cell inoculum (OD600 at 0 h 0.85), 48 h test
[12] = 0.2%, low cell inoculum (OD600 at 0 h 0.30), 48 h test

## OCCc1ccccc1 [PheOH, 2-phenylethanol]
S. cerevisiae JAY 270; PheOH 0.2%
  Glycerol concentration, decrease: 21%
S. cerevisiae JAY 270; PheOH 0.2% (w/v)
  Biomass Yield: 0.063 ± 0.008 g/g
  Biomass yield % change vs. control: −23 ± 5 %
  EtOH yield: 0.435 ± 0.003 g/g
  EtOH yield % change vs. control: 5.3 ± 0.8 %
  Glycerol yield: 0.071 ± 0.001 g/g
  Glycerol yield % change vs. control: −20 ± 2 %
S. cerevisiae JAY 270; PheOH 0.2% (w/v), listed as 2-phenylethanol
  EtOH yield % change vs. control: 6%
S. cerevisiae JAY 270; PheOH 0.2%, 24 h
  Final cell concentration, lower than control: 22%
S. cerevisiae JAY 270; PheOH 0.2%, after 12 h (control completely consumed)
  Glucose remaining: about 2 g/L
S. cerevisiae JAY 270
  Biomass yield, lower in comparison to control: about 20%
yeast; 0.05%, high cell inoculum (OD600 at 0 h 1.96)
  OD600 at 26 h: 4.24
yeast; [1]
  EtOH yield: 0.47 g/g
  EtOH yield % Δ from control: 3.1%
yeast; 0.05%, low cell inoculum (OD600 at 0 h 0.70)
  OD600 at 26 h: 3.28
yeast; [2]
  EtOH yield: 0.47 g/g
  EtOH yield % Δ from control: −1.9%
yeast; 0.1%, high cell inoculum (OD600 at 0 h 1.96)
  OD600 at 26 h: 3.99
yeast; [3]
  EtOH yield: 0.47 g/g
  EtOH yield % Δ from control: 1.7%
yeast; 0.1%, low cell inoculum (OD600 at 0 h 0.70)
  OD600 at 26 h: 2.83
yeast; [4]
  EtOH yield: 0.45 g/g
  EtOH yield % Δ from control: −4.6%
yeast; 0.2%, high cell inoculum (OD600 at 0 h 1.96)
  OD600 at 26 h: 3.53
yeast; [5]
  EtOH yield: 0.48 g/g
  EtOH yield % Δ from control: 4.9%
yeast; 0.2%, low cell inoculum (OD600 at 0 h 0.70)
  OD600 at 26 h: 2.41
yeast; [6]
  EtOH yield: 0.47 g/g
  EtOH yield % Δ from control: −1.1%
S. cerevisiae JAY270; D. armatus hydrolysate, batch
  EtOH yield: 0.46 g/g
  EtOH yield % Δ from control: 1.54%

## OCCc1c[nH]c2ccccc12 [TrpOH, tryptophol]
S. cerevisiae JAY 270; TrpOH 0.12% (w/v)
  Biomass Yield: 0.063 ± 0.008 g/g
  Biomass yield % change vs. control: −28 ± 5 %
  EtOH yield: 0.420 ± 0.012 g/g
  EtOH yield % change vs. control: 6.5 ± 3.1 %
  Glycerol yield: 0.070 ± 0.004 g/g
  Glycerol yield % change vs. control: −17 ± 2 %
S. cerevisiae JAY 270; TrpOH 0.12% (w/v), listed as tryptophol
  EtOH yield % change vs. control: 10%
S. cerevisiae JAY 270; TrpOH 0.12%, 24 h
  Final cell concentration, lower than control: about 22%
  Glycerol concentration, lower than control: 17%
S. cerevisiae JAY 270; TrpOH 0.12%, 24 h, listed as tryptophol
  Final cell concentration, lower than control: 22%
S. cerevisiae JAY 270
  Biomass yield, lower in comparison to control: about 20%
yeast; 0.05%, high cell inoculum (OD600 at 0 h 0.85)
  OD600 at 48 h: 2.47
yeast; [7]
  EtOH yield: 0.52 g/g
  EtOH yield % Δ from control: 4.6%
yeast; 0.05%, low cell inoculum (OD600 at 0 h 0.30)
  OD600 at 48 h: 1.17
yeast; [8]
  EtOH yield: 0.50 g/g
  EtOH yield % Δ from control: 5.7%
yeast; 0.1%, high cell inoculum (OD600 at 0 h 0.85)
  OD600 at 48 h: 1.87
yeast; [9]
  EtOH yield: 0.54 g/g
  EtOH yield % Δ from control: 7.6%
yeast; 0.1%, low cell inoculum (OD600 at 0 h 0.30)
  OD600 at 48 h: 0.79
yeast; [10]
  EtOH yield: 0.50 g/g
  EtOH yield % Δ from control: 2.2%
yeast; 0.2%, high cell inoculum (OD600 at 0 h 0.85)
  OD600 at 48 h: 1.40
yeast; [11]
  EtOH yield: 0.51 g/g
  EtOH yield % Δ from control: 1.9%
yeast; 0.2%, low cell inoculum (OD600 at 0 h 0.30)
  OD600 at 48 h: 0.51
yeast; [12]
  EtOH yield: 0.52 g/g
  EtOH yield % Δ from control: 5.9%
S. cerevisiae JAY270
  Ethanol yield higher than the value for free cell fermentation of D. armatus hydrolysate: about 20%
S. cerevisiae JAY270; D. armatus hydrolysate, batch
  Ethanol yield: 0.49 g ethanol/g sugar
  EtOH yield: 0.49 g/g
  EtOH yield % Δ from control: 11.4% and 11.42%
